In patent publication US9469645B2, “Compounds and compositions for the treatment of parasitic diseases” (Novartis AG, priority 2009, dated 2016):

What was measured:
[1] = tested on: 3D7 P. falciparum strain; experiment: parasite proliferation assay in infected red blood cells (SYBR Green I); type: cell-based, Plasmodium falciparum; conditions: Plasmodium falciparum, 3D7, Erythrocyte, 3D7 strain; read-out: EC50 3D7 strain
Source text: (§1) Compounds of the invention can be assayed to measure their capacity to inhibit proliferation of parasitemia in infected red blood cells. The proliferation is quantified by the addition of SYBR Green I (INVITROGEN)® dye which has a high affinity for double stranded DNA.
The following assay illustrates the invention without in any way limiting the scope of the invention. This parasite proliferation assay measures the increase in parasite DNA content using a DNA intercalating dye, SYBR Green®.
3D7 P. falciparum strain is grown in complete culturing media until parasitemia reaches 3% to 8% with O+ human erythrocytes. 20 μl of screening media is dispensed into 384 well assay plates. […] 10 μl of lysis buffer (saponin, triton-X, EDTA) containing a 10× solution of SYBR Green I® in RPMI media is dispensed into the plates. The plates are lidded and kept at room temperature overnight for the lysis of the infected red blood cells.

[2] = tested on: W2 strain; experiment: parasite proliferation assay in infected red blood cells (SYBR Green I), W2 strain; type: cell-based; conditions: Erythrocyte
Source text: as §1

SMILES | EC50 [1] | EC50 [2]
CC(C)(N)C(=O)N1CCn2c(nc(C3CCCCC3)c2Nc2ccc(F)cc2)C1 [Compound 15] | 2.63 µM | 2.11 µM
CC(C)(N)C(=O)N1CCn2c(nc(-c3ccc(F)cc3)c2Nc2cccnc2)C1 [Compound 16] | 14.1 µM | 3.33 µM
C[C@H](N)C(=O)N1CCn2c(nc(-c3ccc(F)cc3)c2Nc2ccc(F)cc2)C1 [Compound 17] | 0.09 µM | 0.064 µM
NCCCC(=O)N1CCn2c(nc(-c3ccc(F)cc3)c2Nc2ccc(F)cc2)C1 [Compound 18] | 12.3 µM | 8.14 µM
N[C@@H](Cc1ccccc1)C(=O)N1CCn2c(nc(-c3ccc(F)cc3)c2Nc2ccc(F)cc2)C1 [Compound 19] | 0.07 µM | 0.059 µM
N[C@H](Cc1ccccc1)C(=O)N1CCn2c(nc(-c3ccc(F)cc3)c2Nc2ccc(F)cc2)C1 [Compound 20] | 0.11 µM | 0.121 µM
CC(C)(N)C(=O)N1CCn2c(nc(-c3ccc(F)cc3)c2Nc2ccc(Br)cc2)C1 [Compound 21] | 0.1 µM | 0.078 µM
CN(C)CC(=O)N1CCn2c(nc(-c3ccc(F)cc3)c2Nc2ccc(F)cc2)C1 [Compound 22] | 1.3 µM | 0.691 µM
CC(C)(N)C(=O)N1CCn2c(nc(-c3ccc(F)cc3)c2NCc2ccccc2)C1 [Compound 23] | > 10.6 µM | 10.5 µM
Cc1ccc(-c2c(-c3ccc(Cl)cc3)nc3cnccn23)cc1 [Compound 24] | 8.92 µM | 2.86 µM
CC(=O)NCC(=O)N1CCn2c(nc(-c3ccc(F)cc3)c2Nc2ccc(F)cc2)C1 [Compound 25] | > 10.6 µM | 4.35 µM
CC(C)(N)C(=O)N1CCn2c(nc(-c3ccc(F)cc3)c2NC2CCCCC2)C1 [Compound 27] | 9.61 µM | 5.98 µM
NCC(=O)N1CCn2c(nc(-c3ccc(F)cc3)c2Nc2ccc(F)c(F)c2)C1 [Compound 30] | 0.03 µM | 0.023 µM
CC(C)(N)C(=O)N1CCn2c(nc(-c3ccc(F)cc3)c2-c2ccc(F)cc2)C1 [Compound 31] | 13.1 µM | 6.89 µM
O=C(CN1CCCC1)N1CCn2c(nc(-c3ccc(F)cc3)c2Nc2ccc(F)cc2)C1 [Compound 33] | 0.74 µM | 1.62 µM
NCCC(=O)N1CCn2c(nc(-c3ccc(F)cc3)c2Nc2ccc(F)cc2)C1 [Compound 34] | 0.07 µM | 0.075 µM

SMILES | EC50 [1] | EC50 [2]
CC(C)(N)C(=O)N1CCn2c(nc(-c3ccc(F)cc3)c2Nc2cccc(F)c2)C1 [Compound 35] | 0.12 µM | 0.105 µM
NCC(=O)N1CCn2c(nc(-c3ccc(F)cc3)c2Nc2cccc(F)c2)C1 [Compound 36] | 0.05 µM | 0.034 µM
CC(C)(N)C(=O)N1CCn2c(nc(-c3ccc(F)cc3)c2Nc2ccc(Cl)cc2)C1 [Compound 39] | 0.02 µM | 0.024 µM
NCC(=O)N1CCn2c(nc(-c3ccc(F)cc3)c2Nc2ccc(Cl)cc2)C1 [Compound 40] | 0.01 µM | 0.009 µM
O=C(CN1CCOCC1)N1CCn2c(nc(-c3ccc(F)cc3)c2Nc2ccc(F)cc2)C1 [Compound 41] | 2.65 µM | 1.79 µM
O=C(CN1CCS(=O)(=O)CC1)N1CCn2c(nc(-c3ccc(F)cc3)c2Nc2ccc(F)cc2)C1 [Compound 42] | 6.1 µM | 4.61 µM
O=C(CN1CCCC(F)(F)C1)N1CCn2c(nc(-c3ccc(F)cc3)c2Nc2ccc(F)cc2)C1 [Compound 43] | 0.18 µM | 0.149 µM
NC1(C(=O)N2CCn3c(nc(-c4ccc(F)cc4)c3Nc3ccc(F)cc3)C2)CC1 [Compound 45] | 0.98 µM | 1.33 µM
Cc1ccc(-c2c(-c3ccc(Cl)cc3)nc3n2CCN(C(=O)C(C)(C)N)C3)cc1 [Compound 47] | 6.98 µM | 6.18 µM
Fc1ccc(Nc2c(-c3ccc(F)cc3)nc3n2CCN(Cc2ccccc2)C3)cc1 [Compound 48] | 1.84 µM | 1.75 µM
O=C(NCC(=O)N1CCn2c(nc(-c3ccc(F)cc3)c2Nc2ccc(F)cc2)C1)OCc1ccccc1 [Compound 49] | 2.29 µM | 1.9 µM
NC(C(=O)N1CCn2c(nc(-c3ccc(F)cc3)c2Nc2ccc(F)cc2)C1)C(F)(F)F (centres unmarked) [Compound 50] | 0.18 µM | 0.187 µM
NCC(=O)N1CCn2c(nc(-c3ccc(F)cc3O)c2Nc2ccc(F)cc2)C1 [Compound 51] | 0.07 µM | 0.062 µM
Cc1ccc(-c2nc3n(c2Nc2ccc(F)cc2)CCN(C(=O)CN)C3)cc1 [Compound 52] | 3.14 µM | 3.36 µM
COc1ccc(-c2nc3n(c2Nc2ccc(F)cc2)CCN(C(=O)CN)C3)cc1 [Compound 53] | 2.27 µM | 1.7 µM
